This is an account of results in patent publication US10596164B2, “Anti-clostridium compounds” (Nederlandse Organisatie voor …, priority 2014, dated 2020).

Test [1] relates to C. difficile ATCC 43599 vegetative cells. As to the kind of experiment: MIC test with asymmetrical compounds on C. difficile vegetative cells. Format: cell-based, Clostridium difficile. Particulars: Clostridioides difficile. As for the experimental part:
(§1) Growth inhibition experiments were performed according to the following protocol: […] Microtiter plate wells were filled with 495 microliter of this suspension to which 5 microliter of selected compounds dissolved in DMSO was added (final concentration of each compound was 10 microgram per ml). This was all performed in an anaerobic cabinet. After filling the microtiter plate was sealed and incubated for 22 hours at 37° C. Inhibiting compounds were selected by visually determining growth inhibition. According to the same protocol as in Example 3 asymmetrical compounds were tested on their inhibitory effect of C. difficile, but also on other bacterial species, such as S. aureus and B. cereus. In the below tables the compounds and the MIC values that have been found for the various micro-organisms are listed. In the tests described in Table 4 and 5 the medium indicated as 'flora' is the SIEM medium described in […], Schols H A, Nauta A, Schoterman […]. High-throughput analysis of the impact of antibiotics on the human intestinal microbiota composition.

The test system of test [2] is Staphylococcus aureus ATCC 6538. Kind of test: MIC test with asymmetrical compounds on S. aureus. Format: cell-based. The method, then:
as §1

The subject of test [3] is Bacillus cereus ATCC 11778. Kind of test: MIC test with asymmetrical compounds on B. cereus. Type of test: cell-based. As for the experimental part: as §1
The test system of test [4] is C. difficile ATCC 43599 spores. As to the kind of experiment: MIC test with asymmetrical compounds on C. difficile spores. Type of test: cell-based, Clostridium difficile. Particulars: Clostridioides difficile. The method, then: as §1
Setting [5] is: ATCC43599, 22 h, Table 4, SAB model medium, tested concentrations 1.2 μg/ml-0.03 μg/ml if not indicated otherwise, read-out: MIC veg. cells SAB model medium.
The mark [6] stands for this setting: ATCC43599, Table 3, vegetative cells, tested concentrations 10 μg/ml-0.003 μg/ml if not indicated otherwise, read-out: MIC Veg. cells.
[7] abbreviates: ATCC43599, Table 4, flora (SIEM) medium, tested concentrations 1.2 μg/ml-0.03 μg/ml if not indicated otherwise, read-out: MIC veg. cells flora.
[8] abbreviates: ATCC6538, Table 5, read-out: MIC S. aureus ATCC 6538.
Setting [9] is: ATCC11778, Table 5, read-out: MIC B. cereus ATCC 11778.
[10] abbreviates: ATCC43599, 22 h, Table 4, SAB model medium, tested concentrations 1.2 μg/ml-0.03 μg/ml if not indicated otherwise, read-out: MIC spores SAB model medium.
The mark [11] stands for this setting: ATCC43599, Table 3, spores, tested concentrations 10 μg/ml-0.003 μg/ml if not indicated otherwise, read-out: MIC spores.
The mark [12] stands for this setting: ATCC43599, Table 4, flora (SIEM) medium, tested concentrations 1.2 μg/ml-0.03 μg/ml if not indicated otherwise, read-out: MIC spores flora.

In brackets after ≈: the same amount, converted by molar mass. Where two headings read alike, the source gives them in different places.

On to `O=C1NC(=O)c2ccc3c4c(ccc1c24)C(=O)N(CCCCO)C3=O` [20141155PBmol41], for which the MIC in test [1] (setting [5]) was 0.07 to 0.15 µg/mL (≈ 0.207 to 0.443 µM); in test [1] (setting [6]) it was 0.07 to 0.15 µg/mL (≈ 0.207 to 0.443 µM); in test [1] (setting [7]) it was 0.15 to 0.3 µg/mL (≈ 0.443 to 0.887 µM); in test [2] (setting [8]) it was above 100 µg/mL; in test [3] (setting [9]) it was 4 µg/mL (≈ 11.8 µM); in test [4] (setting [10]), 0.07 to 0.15 µg/mL (≈ 0.207 to 0.443 µM). Moreover, the MIC in test [4] (setting [11]) lay within 0.03 to 0.07 µg/mL (≈ 0.0887 to 0.207 µM); in test [4] (setting [12]) it was 0.15 to 0.3 µg/mL (≈ 0.443 to 0.887 µM).
Take `O=C1NC(=O)c2ccc3c4c(ccc1c24)C(=O)N(c1ccccn1)C3=O` [20141155PBmol18]: the MIC was 0.07 to 0.15 µg/mL (≈ 0.204 to 0.437 µM) in test [1] (setting [5]); 0.07 to 0.15 µg/mL (≈ 0.204 to 0.437 µM) in test [1] (setting [6]); 0.15 to 0.3 µg/mL (≈ 0.437 to 0.874 µM) in test [1] (setting [7]); 40 µg/mL (≈ 117 µM) in test [2] (setting [8]); 4 µg/mL (≈ 11.7 µM) in test [3] (setting [9]); 0.07 to 0.15 µg/mL (≈ 0.204 to 0.437 µM) in test [4] (setting [10]). The MIC in test [4] (setting [11]) fell in the range of 0.07 to 0.15 µg/mL (≈ 0.204 to 0.437 µM); in test [4] (setting [12]), 0.3 to 0.6 µg/mL (≈ 0.874 to 1.75 µM).
`O=C1NC(=O)c2ccc3c4c(ccc1c24)C(=O)N(c1ccc(O)cc1)C3=O` [20141155PBmol37]: the MIC in test [1] (setting [5]) is 0.07 to 0.15 µg/mL (≈ 0.195 to 0.419 µM); in test [1] (setting [6]), 0.07 to 0.15 µg/mL (≈ 0.195 to 0.419 µM); in test [1] (setting [7]), 0.6 to 1.2 µg/mL (≈ 1.67 to 3.35 µM); in test [2] (setting [8]), 40 µg/mL (≈ 112 µM); in test [3] (setting [9]) it was 4 µg/mL (≈ 11.2 µM); in test [4] (setting [10]), 0.07 to 0.15 µg/mL (≈ 0.195 to 0.419 µM). For the same molecule, the results for the MIC in test [4] (setting [11]) and in test [4] (setting [12]) were 0.03 to 0.07 µg/mL (≈ 0.0837 to 0.195 µM) and 0.3 to 0.6 µg/mL (≈ 0.837 to 1.67 µM), respectively.
Take `COc1ccc(OC)c(N2C(=O)c3ccc4c5c(ccc(c35)C2=O)C(=O)NC4=O)c1` [20141155PBmol46]: the MIC in test [1] (setting [5]) was 0.07 to 0.15 µg/mL (≈ 0.174 to 0.373 µM); in test [1] (setting [6]) it was 0.07 to 0.15 µg/mL (≈ 0.174 to 0.373 µM); in test [1] (setting [7]) it was 0.6 to 1.2 µg/mL (≈ 1.49 to 2.98 µM); in test [2] (setting [8]), 10 µg/mL (≈ 24.9 µM); in test [3] (setting [9]), 4 µg/mL (≈ 9.94 µM); in test [4] (setting [10]) it was 0.07 to 0.15 µg/mL (≈ 0.174 to 0.373 µM). For the same molecule, the MIC fell in the range of 0.03 to 0.07 µg/mL (≈ 0.0746 to 0.174 µM) in test [4] (setting [11]) and 0.6 to 1.2 µg/mL (≈ 1.49 to 2.98 µM) in test [4] (setting [12]).
As to `O=C1NC(=O)c2ccc3c4c(ccc1c24)C(=O)N(CC1CCCO1)C3=O` (stereo not drawn) [20141155PBmol30], the MIC is 0.03 to 0.07 µg/mL (≈ 0.0856 to 0.2 µM) in test [1] (setting [5]); 0.03 to 0.07 µg/mL (≈ 0.0856 to 0.2 µM) in test [1] (setting [6]); 0.3 to 0.6 µg/mL (≈ 0.856 to 1.71 µM) in test [1] (setting [7]); above 100 µg/mL in test [2] (setting [8]); above 100 µg/mL in test [3] (setting [9]); 0.03 to 0.07 µg/mL (≈ 0.0856 to 0.2 µM) in test [4] (setting [10]). The MIC lay in the range of 0.01 to 0.03 µg/mL (≈ 0.0285 to 0.0856 µM) in test [4] (setting [11]) and 0.3 to 0.6 µg/mL (≈ 0.856 to 1.71 µM) in test [4] (setting [12]).
In the case of `O=C1NC(=O)c2ccc3c4c(ccc1c24)C(=O)N(c1ccncc1)C3=O` [20141155PBmol20], the MIC in test [2] (setting [8]) and in test [3] (setting [9]) was above 100 µg/mL in each case.
As to `CC(=O)c1cccc(N2C(=O)c3ccc4c5c(ccc(c35)C2=O)C(=O)NC4=O)c1` [20141155PBmol17], the MIC is 0.03 to 0.07 µg/mL (≈ 0.0781 to 0.182 µM) in test [1] (setting [5]); 0.01 to 0.03 µg/mL (≈ 0.026 to 0.0781 µM) in test [1] (setting [6]); 0.3 to 0.6 µg/mL (≈ 0.781 to 1.56 µM) in test [1] (setting [7]); above 100 µg/mL in test [2] (setting [8]); 4 µg/mL (≈ 10.4 µM) in test [3] (setting [9]); 0.03 to 0.07 µg/mL (≈ 0.0781 to 0.182 µM) in test [4] (setting [10]). Besides, the MIC in test [4] (setting [11]) is 0.01 to 0.03 µg/mL (≈ 0.026 to 0.0781 µM); in test [4] (setting [12]), above 1.2 µg/mL.
For `CN[C@H](CC(C)C)C(=O)N[C@H]1C(=O)N[C@@H](CC(N)=O)C(=O)N[C@H]2C(=O)N[C@H]3C(=O)N[C@H](C(=O)N[C@H](C(=O)O)c4cc(O)cc(O)c4-c4cc3ccc4O)[C@H](O)c3ccc(c(Cl)c3)Oc3cc2cc(c3O[C@@H]2O[C@H](CO)[C@@H](O)[C@H](O)[C@H]2O[C@H]2C[C@](C)(N)[C@H](O)[C@H](C)O2)Oc2ccc(cc2Cl)[C@H]1O` [Vancomycin, reference compound], the MIC in test [1] (ATCC43599, 22 h, read-out: MIC veg. cells SAB model medium) was below 0.3 µg/mL; in test [1] (ATCC43599, read-out: MIC Veg. cells) it was below 0.3 µg/mL; in test [1] (ATCC43599, read-out: MIC veg. cells flora), below 0.3 µg/mL; in test [2] (ATCC6538, read-out: MIC S. aureus ATCC 6538), 1 µg/mL (≈ 0.69 µM); in test [3] (ATCC11778, read-out: MIC B. cereus ATCC 11778), 1 µg/mL (≈ 0.69 µM); in test [4] (ATCC43599, 22 h, read-out: MIC spores SAB model medium) it was below 0.3 µg/mL. The MIC in test [4] (ATCC43599, read-out: MIC spores) was below 0.3 µg/mL; in test [4] (ATCC43599, read-out: MIC spores flora) it was below 0.3 µg/mL.
Regarding `O=C1NC(=O)c2ccc3c4c(ccc1c24)C(=O)N(c1cccc(O)c1)C3=O` [20141155PBmol08], the MIC in test [1] (setting [5]) was 0.15 to 0.3 µg/mL (≈ 0.419 to 0.837 µM); in test [1] (setting [6]), 0.07 to 0.15 µg/mL (≈ 0.195 to 0.419 µM); in test [1] (setting [7]), 0.6 to 1.2 µg/mL (≈ 1.67 to 3.35 µM); in test [2] (setting [8]) it was above 100 µg/mL; in test [3] (setting [9]), 10 µg/mL (≈ 27.9 µM); in test [4] (setting [10]), 0.07 to 0.15 µg/mL (≈ 0.195 to 0.419 µM). Further, the MIC in test [4] (setting [11]) was in the range of 0.03 to 0.07 µg/mL (≈ 0.0837 to 0.195 µM); in test [4] (setting [12]) it was 0.6 to 1.2 µg/mL (≈ 1.67 to 3.35 µM).

As a reminder, the MIC is the lowest concentration that inhibits growth of the organism.
